# Experimental data as given in article PMC5365648, “Pharmacokinetics of the Novel Echinocandin CD101 in Multiple Animal Species” (Antimicrobial Agents and Chemotherapy, 2017).
# Starred links: 1 amine or outer side, 2 acyl side, 3 side chain; linkers in the order of their positions; H or OH if unused. Positions of bridges follow the written chain, without caps; N, C: chain ends. Non-standard residues stand in square brackets, D forms with d. Residues, ends and D or L forms follow the SMILES beside them. *: point of attachment. Orn(4R-OH,5R-OCH2CH2NMe3+) = C[N+](C)(C)CCO[C@@H](N[*:3])[C@H](O)C[C@H](N[*:1])C(=O)[*:2]; pTerphenylCO(4''-OnC5H11) = CCCCCOc1ccc(-c2ccc(-c3ccc(C(=O)*)cc3)cc2)cc1; hTyr(3S-OH,4S-OH) = N[C@H](C(=O)O)[C@H](O)[C@@H](O)c1ccc(O)cc1; Pro(3S-OH,4S-Me) = C[C@H]1CN[C@H](C(=O)O)[C@H]1O; Hyp = O=C(O)[C@@H]1C[C@@H](O)CN1
# Tests used:
# [1] = Mouse pharmacokinetics, i.p. injection; settings: in vivo, ip, female ICR (CD-1) mice, plasma, LC-MS/MS, noncompartmental from mean profile, n = 3/time point
# Experimental: A single 1-mg/kg dose of CD101 or anidulafungin was administered by slow i.v. bolus (∼2 min) to male ICR (CD-1) mice (n = 3/group/time point). Blood samples (via cardiac puncture) were collected for plasma processing predose and at 0.083 (5 min), 0.5, 1, 4, 8, 24, 48, and 72 h postdose. PK profiles were generated based on mean results from the three animals sampled at each time point. In another study, a single 1-, 4-, or 16-mg/kg dose of CD101 was administered by i.p. injection to female ICR (CD-1) mice (n = 3/time point/dose), and blood samples (via cardiac puncture) were drawn for plasma processing at 1, 3, 6, 12, 24, 48, 72, and 96 h postdose.
# (§1) For each of the pharmacokinetic studies, whole-blood samples (K3EDTA as anticoagulant) were collected and centrifuged within 30 min of collection. The resulting plasma was harvested and stored at −20°C until analysis. Tissue samples were homogenized by a bead-based homogenizer following the addition of deionized water to excised tissue in a 2:1 (vol/wt) ratio and stored at −20°C until analysis. Prior to analysis, plasma or homogenized tissue samples were quenched with acetonitrile (3:1, acetonitrile-plasma or tissue ratio) containing an appropriate internal standard (isotopically labeled d9-CD101 [mouse and rat] or a structural analog [dog, monkey, and chimpanzee]). Plasma and tissue homogenate concentrations (quantified against calibration standards processed the same way) were determined by reverse-phase, gradient liquid chromatography with tandem mass spectrometric detection (LC-MS/MS) using an AB-SCIEX API 3200Q/4000 mass spectrometry system. Calibration standard ranges were the following: 0.400 (lower limit of quantitation, [LLOQ]) to 200 μg/ml (CD101, mouse), 0.040 (LLOQ) to 10 μg/ml (anidulafungin, mouse), 0.002 (LLOQ) to 10 μg/ml (CD101, rat), 0.005 (LLOQ) to 10 μg/ml (anidulafungin, rat), 0.050 (LLOQ) to 10 μg/ml (CD101, dog), 0.020 (LLOQ) to 10 μg/ml (anidulafungin, dog), 0.010 (LLOQ) to 10 μg/ml (CD101, monkey), 0.001 (LLOQ) to 10 μg/ml (anidulafungin, monkey), 0.015 (LLOQ) to 10 μg/ml (CD101, chimpanzee), and 0.015 (LLOQ) to 10 μg/ml (anidulafungin, chimpanzee). When necessary, dilutions with blank matrix were made for samples that quantified above the upper limit of quantitation. The methods used in the analysis were qualified as fit for purpose: calibration standards were matrix matched with the exception that human plasma calibration standards were used to analyze chimpanzee plasma samples due to the rarity of blank chimpanzee plasma, and, for each analytical batch, triplicate calibration standards were included at the beginning, approximately in the middle, and at the end of the batch. Following analysis, quantitation was carried out by a calibration curve comprising the analyte/internal standard area ratio versus concentration. Analytical batch acceptance followed the general guidance that triplicate standards/quality controls be within ±20% for accuracy (percentage of nominal concentration) and ≤20% for precision (percent coefficient of variation).
# (§2) Pharmacokinetic parameters were calculated by noncompartmental analysis using Phoenix WinNonlin (version 6.3; Pharsight, Mountain View, CA) from either individual or mean (mouse) concentration-time profiles. An unpaired t test was used to compare mean exposures from male and female rats.
# [2] = Cynomolgus monkey pharmacokinetics, i.v. bolus; parameters: species or system cynomolgus monkeys; settings: in vivo, iv, male cynomolgus monkeys, single 2.13 mg/kg slow i.v. bolus, plasma, LC-MS/MS, noncompartmental
# Experimental: A single dose of 2.13 mg/kg CD101 or 2.8 mg/kg anidulafungin was administered by slow i.v. bolus (∼10 min) to cynomolgus monkeys (n = 3/group), and blood samples (via peripheral vein) were drawn for plasma processing at 0.167, 0.5, 1, 3, 8, 12, 24, 48, and 72 h postdose.
# as §1, §2
# [3] = Chimpanzee pharmacokinetics, i.v. infusion; type: in vivo, chimpanzees
# Experimental: A single 1-mg/kg dose of CD101 or anidulafungin was administered by i.v. infusion (1 h) to female chimpanzees (n = 2/group), and blood samples (via peripheral vein) were drawn for plasma processing at the midpoint of infusion, at the end of infusion, at 2, 4, 8, 12, 24, 48, and 72 h postdose, and on days 5, 7, and 10 postdose.
# as §1, §2
# [4] = human plasma; ref [9]; cited from earlier work
# From the text: In the case of brain concentrations, there was little difference across all the collection intervals. Given the relatively low concentrations and small differences across times, measured concentrations may reflect contamination from residual whole blood during the collec ...
# [5] = ref [10], cited from earlier work
# Experimental: The half-life of CD101 in human is about 3-fold longer (about 90 h) than that of anidulafungin (about 30 h) ([10]). It should be noted that 90 h is the effective half-life of CD101 (i.e., the half-life that covers the majority of the AUC), with a longer, later-phase half-life evident at lower concentration ...
# [6] = in vivo, iv, female chimpanzees, single 1 mg/kg i.v. infusion (1 h), plasma, LC-MS/MS, noncompartmental, n = 2
smiles,measurement,setting,value
"CCCCCOc1ccc(-c2ccc(-c3ccc(C(=O)N[C@H]4C[C@@H](O)[C@@H](OCC[N+](C)(C)C)NC(=O)[C@@H]5[C@@H](O)[C@@H](C)CN5C(=O)[C@H]([C@@H](C)O)NC(=O)[C@H]([C@H](O)[C@@H](O)c5ccc(O)cc5)NC(=O)[C@@H]5C[C@@H](O)CN5C(=O)[C@H]([C@@H](C)O)NC4=O)cc3)cc2)cc1 [CD101] ({pTerphenylCO(4''-OnC5H11)}-[Orn(4R-OH,5R-OCH2CH2NMe3+)]T[Hyp][hTyr(3S-OH,4S-OH)]T[Pro(3S-OH,4S-Me)]; lactam 1-C)",AUC(0-inf),[1]; single 1 mg/kg i.p.,88.9 µg·h/mL
same,AUC(0-t),[1]; single 1 mg/kg i.p.,59.6 µg·h/mL
same,Cmax,[1]; single 1 mg/kg i.p.,3970 ng/mL
same,Tmax,[1]; single 1 mg/kg i.p.,1 h
same,half-life,[1]; single 1 mg/kg i.p.,71.1 h
same,AUC(0-inf),[1]; single 4 mg/kg i.p.,313 µg·h/mL
same,AUC(0-t),[1]; single 4 mg/kg i.p.,245 µg·h/mL
same,Cmax,[1]; single 4 mg/kg i.p.,13600 ng/mL
same,Tmax,[1]; single 4 mg/kg i.p.,1 h
same,half-life,[1]; single 4 mg/kg i.p.,44.5 h
same,AUC(0-inf),[1]; single 16 mg/kg i.p.,1200 µg·h/mL
same,AUC(0-t),[1]; single 16 mg/kg i.p.,902 µg·h/mL
same,Cmax,[1]; single 16 mg/kg i.p.,52000 ng/mL
same,Tmax,[1]; single 16 mg/kg i.p.,1.67 h
same,half-life,[1]; single 16 mg/kg i.p.,60.8 h
same,AUC(0-t),[2]; n = 3,92.1 µg·h/mL
same,Cmax,[2]; n = 3,9070 ng/mL
same,Tmax,[2]; n = 3,0.167 h
same,half-life,[2]; n = 3,39.7 h
same,clearance,"[2]; n = 3, read-out: CL (clearance)",0.405 mL/min/kg
same,Vd,"[2]; n = 3, read-out: Vss (volume of distribution at steady state)",0.597 L/kg
same,clearance fold lower than anidulafungin,"[3]; chimpanzee, 1 mg/kg i.v. infusion, 0.06 versus 0.42 ml/min/kg, n = 2/group",over 7 fold
same,t1/2 fold longer than anidulafungin,"[3]; chimpanzee, 1 mg/kg i.v. infusion, 81 versus 30 h, n = 2/group",2.7 fold
same,AUC(0-inf),[3]; [6],302 µg·h/mL
same,AUC(0-t),[3]; [6],290 µg·h/mL
same,Cmax,[3]; [6],7150 ng/mL
same,Tmax,[3]; [6],1 h
same,half-life,[3]; [6],80.7 h
same,clearance,"[3]; in vivo, iv, female chimpanzees, single 1 mg/kg i.v. infusion (1 h), plasma, LC-MS/MS, noncompartmental, n = 2, read-out: CL (clearance)",0.0568 mL/min/kg
same,Vd,"[3]; in vivo, iv, female chimpanzees, single 1 mg/kg i.v. infusion (1 h), plasma, LC-MS/MS, noncompartmental, n = 2, read-out: Vss (volume of distribution at steady state)",0.4 L/kg
same,protein bound,[4],98.7%
same,half-life in human,[5]; for CD101 the effective half-life (covers the majority of the AUC),about 90 h
same,"half-life in human, fold longer than anidulafungin",[5],about 3 fold
